# Experimental data taken from ChEMBL document CHEMBL3045838, “Synthesis, antimicrobial and antioxidant activities of 2-[1-{3,5-diaryl-4,5-dihydro-1H-pyrazolenyl}]-4-(4-nitrophenyl)-[1,3]-thiazoles” (2013).
# Key:
# Type in all cases: functional
# Aspergillus flavus [1] = assay: Antifungal activity against Aspergillus flavus NCIM 524 assessed as growth inhibition by serial plate dilution method
# Staphylococcus aureus [2] = assay: Antibacterial activity against Staphylococcus aureus ATCC 25923 assessed as growth inhibition by serial plate dilution method
# Talaromyces marneffei [3] = assay: Antifungal activity against Talaromyces marneffei assessed as growth inhibition at 1.56 to 25 ug/mL
# Staphylococcus aureus [4] = assay: Antibacterial activity against Staphylococcus aureus ATCC 25923 assessed as growth inhibition at 1.56 to 25 ug/mL
# [5] = test system: Trichophyton mentagrophytes; assay: Antifungal activity against Trichophyton mentagrophytes assessed as growth inhibition by serial plate dilution method
# Talaromyces marneffei [6] = assay: Antifungal activity against Talaromyces marneffei assessed as growth inhibition by serial plate dilution method
# Pseudomonas aeruginosa [7] = assay: Antibacterial activity against Pseudomonas aeruginosa ATCC 27853 assessed as growth inhibition at 1.56 to 25 ug/mL
# Escherichia coli [8] = assay: microbe, parasite or virus in culture; details: ATCC 25922
# Description: Antibacterial activity against Escherichia coli ATCC 25922 assessed as growth inhibition by serial plate dilution method
# [9] = test system: Radical scavenging activity; assay: Antioxidant activity assessed as inhibition of DPPH radical generation at 4000 ug/mL after 15 min by UV-Vis spectrophotometric analysis relative to control; details: at 4000 µg/mL
# Pseudomonas aeruginosa [10] = assay: Antibacterial activity against Pseudomonas aeruginosa ATCC 27853 assessed as growth inhibition by serial plate dilution method
# Klebsiella pneumoniae [11] = assay: Antibacterial activity against Klebsiella pneumoniae assessed as growth inhibition at 1.56 to 25 ug/mL
# Klebsiella pneumoniae [12] = assay: Antibacterial activity against Klebsiella pneumoniae assessed as growth inhibition by serial plate dilution method
# Aspergillus fumigatus [13] = assay: Antifungal activity against Aspergillus fumigatus NCIM 902 assessed as growth inhibition by serial plate dilution method
# Aspergillus flavus [14] = assay: Antifungal activity against Aspergillus flavus NCIM 524 assessed as growth inhibition at 1.56 to 25 ug/mL
# [15] = test system: Trichophyton mentagrophytes; assay: Antifungal activity against Trichophyton mentagrophytes assessed as growth inhibition at 1.56 to 25 ug/mL
# Escherichia coli [16] = assay: Antibacterial activity against Escherichia coli ATCC 25922 assessed as growth inhibition at 1.56 to 25 ug/mL
# Aspergillus fumigatus [17] = assay: Antifungal activity against Aspergillus fumigatus NCIM 902 assessed as growth inhibition at 1.56 to 25 ug/mL
MIC (Aspergillus flavus [1]) [µg/mL],MIC (Staphylococcus aureus [2]) [µg/mL],MIC [5] [µg/mL],MIC (Talaromyces marneffei [6]) [µg/mL],MIC (Escherichia coli [8]) [µg/mL],MIC (Pseudomonas aeruginosa [10]) [µg/mL],MIC (Klebsiella pneumoniae [12]) [µg/mL],MIC (Aspergillus fumigatus [13]) [µg/mL],SMILES,diameter of the inhibition zone (DIZ) (Talaromyces marneffei [3]) [mm],diameter of the inhibition zone (DIZ) (Staphylococcus aureus [4]) [mm],diameter of the inhibition zone (DIZ) (Pseudomonas aeruginosa [7]) [mm],inhibition [9] [%],diameter of the inhibition zone (DIZ) (Klebsiella pneumoniae [11]) [mm],diameter of the inhibition zone (DIZ) (Aspergillus flavus [14]) [mm],diameter of the inhibition zone (DIZ) [15] [mm],diameter of the inhibition zone (DIZ) (Escherichia coli [16]) [mm],diameter of the inhibition zone (DIZ) (Aspergillus fumigatus [17]) [mm]
25,25,25,25,25,25,25,25,CSc1ccc(C2CC(c3ccc([N+](=O)[O-])cc3)=NN2c2nc(-c3ccc([N+](=O)[O-])cc3)cs2)cc1 (stereo not given),< 10,< 10,< 10,75,< 10,< 10,< 10,< 10,< 10
6.25,6.25,6.25,6.25,6.25,6.25,6.25,6.25,CSc1ccc(C2CC(c3ccc(Cl)cc3Cl)=NN2c2nc(-c3ccc([N+](=O)[O-])cc3)cs2)cc1 (stereo not given),16,16,16,88,16,16,16,16,16
12.5,12.5,12.5,12.5,12.5,12.5,12.5,12.5,COc1ccc(C2=NN(c3nc(-c4ccc([N+](=O)[O-])cc4)cs3)C(c3ccc(-c4c(C)cccc4[N+](=O)[O-])o3)C2)cc1OC (stereo not given),11,11,11,66,11,11,11,11,11
6.25,6.25,6.25,6.25,6.25,6.25,6.25,6.25,CSc1ccc(C2CC(c3ccc(Cl)cc3)=NN2c2nc(-c3ccc([N+](=O)[O-])cc3)cs2)cc1 (stereo not given),16,16,16,38,16,16,16,16,16
1.56,,6.25,6.25,,,,6.25,CCC(C)n1ncn(-c2ccc(N3CCN(c4ccc(OCC5COC(Cn6cncn6)(c6ccc(Cl)cc6Cl)O5)cc4)CC3)cc2)c1=O (stereo not given) [ITRACONAZOLE],25,,,,,22,23,,30
,,,,,,,,O=C1O[C@H]([C@@H](O)CO)C(O)=C1O,,,,96,,,,,

SMILES,MIC (Aspergillus flavus [1]) [µg/mL],MIC (Staphylococcus aureus [2]) [µg/mL],MIC [5] [µg/mL],MIC (Talaromyces marneffei [6]) [µg/mL],MIC (Escherichia coli [8]) [µg/mL],MIC (Pseudomonas aeruginosa [10]) [µg/mL],MIC (Klebsiella pneumoniae [12]) [µg/mL],MIC (Aspergillus fumigatus [13]) [µg/mL],diameter of the inhibition zone (DIZ) (Talaromyces marneffei [3]) [mm],diameter of the inhibition zone (DIZ) (Staphylococcus aureus [4]) [mm],diameter of the inhibition zone (DIZ) (Pseudomonas aeruginosa [7]) [mm],inhibition [9] [%],diameter of the inhibition zone (DIZ) (Klebsiella pneumoniae [11]) [mm],diameter of the inhibition zone (DIZ) (Aspergillus flavus [14]) [mm],diameter of the inhibition zone (DIZ) [15] [mm],diameter of the inhibition zone (DIZ) (Escherichia coli [16]) [mm],diameter of the inhibition zone (DIZ) (Aspergillus fumigatus [17]) [mm]
CC1(C)S[C@@H]2[C@H](NC(=O)[C@H](N)c3ccccc3)C(=O)N2[C@H]1C(=O)O [AMPICILLIN],,1.56,,,6.25,6.25,6.25,,,22,25,,23,,,30,
